# Results as given in patent publication US7449477B2, “7-phenyl-isoquinoline-5-sulfonylamino derivatives as inhibitors of akt (protein kinase B)” (Eli Lilly and Company, priority 2003, dated 2008).
# Counter-ions that a name gives are not always drawn.
# Molecular target: T1, active human Akt1 (Homo sapiens, UniProt P31749)
# T1 construct: Active human recombinant Akt1 (full-length) purified from Sf9 insect cells; purchased Upstate Biotechnology, Inc. 14-276; host or cells: Sf9 insect cells
# Assay: Akt1 Phosphorylation Assay (phosphocellulose filter-binding, 33P-Crosstide)
# Format: biochemical
# Details: active human recombinant Akt1 (full-length) 10 nM; 12.5 μM Crosstide; 20 μM ATP; 30 minutes at room temperature
# Protocol: Akt1 Phosphorylation Assay
# The assay described measures the phosphorylation of Crosstide by active human Akt1 and other Akt isoforms. Crosstide contains a consensus sequence derived from Akt substrates GSK3b and forkhead transcription factors (FKs). The ^33P-labeled Crosstide substrate is captured by phosphocellulose membrane filter plates.
# Active human recombinant Akt1 (full-length) purified from Sf9 insect cells is from Upstate Biotechnology, Inc. (Cat. #14-276, 405 μg/ml). Crosstide substrate, NH2-GRPRTSSFAEG-COOH (M.W.1164) is purchased from Multiple Peptide System (Cat. # L59/GR145-153).
# Solution (A): 20% DMSO (dimethylsulphoxide) or Compound in 20% DMSO; Solution (B): Assay Buffer Mix: 31.25 μM Crosstide, 37.5 mM MgCl2, 87.5 mM HEPES, pH 7.3, 50 μM ATP γ-^33P-ATP, 0.05 μCi/μl; Solution (C): Akt Kinase Mix: 31.25 mM HEPES, pH 7.3; 1 mM DTT, 25 nM UBI Akt1.
# Procedure for Phosphocellulose Filter-Binding Assay
# Ten μl of Solution (A) are first mixed with 20 μl Solution (B). The enzymatic reaction is initiated by adding 20 μl Solution (C) to the mixture. (Final concentration or amount in a 50-μl reaction mix: 4% DMSO or various compound concentration in 4% DMSO; 12.5 μM Crosstide; 15 mM MgCl2; 35 mM HEPES, pH7.3; 20 μM ATP; 1 μCi γ-^33P-ATP; 0.4 mM DTT; 10 nM UBI Akt1.) The reactions are performed in 96-well microtiter plates.
# After 30 minutes at room temperature, the reaction is terminated by adding 80 μl of 10% H3PO4. An aliquot of 100 μl from each well is transferred to the phosphocellulose filter plate (Millipore MultiScreen, Catalog #MAPHN0B50). After 30 minutes, the reaction mix is filtered with a Millipore manifold following by 3 washes with 0.5% H3PO4. The filter is then vacuum-dried and the plate is fitted onto a Packard carrier. 100 μl/well Microscint20 are added and the contents are counted in a Packard Top Count.
# T1 sequence (P31749 whole entry): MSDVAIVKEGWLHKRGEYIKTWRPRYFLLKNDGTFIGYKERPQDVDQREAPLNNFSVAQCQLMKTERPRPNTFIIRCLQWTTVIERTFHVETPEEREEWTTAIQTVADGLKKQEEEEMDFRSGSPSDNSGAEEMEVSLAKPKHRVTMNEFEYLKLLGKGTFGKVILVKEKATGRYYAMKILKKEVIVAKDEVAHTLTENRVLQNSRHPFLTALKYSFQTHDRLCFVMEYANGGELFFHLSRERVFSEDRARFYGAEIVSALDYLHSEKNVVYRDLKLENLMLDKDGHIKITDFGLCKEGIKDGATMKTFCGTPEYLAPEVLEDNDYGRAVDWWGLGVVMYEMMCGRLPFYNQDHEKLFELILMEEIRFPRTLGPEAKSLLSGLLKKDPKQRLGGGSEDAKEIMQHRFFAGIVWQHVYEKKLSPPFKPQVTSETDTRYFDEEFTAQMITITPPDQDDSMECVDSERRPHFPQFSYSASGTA
row,Structure (SMILES),IC50
1,"O=[N+]([O-])c1ccc(CCCNCCNS(=O)(=O)c2cc(-c3cccc(F)c3)cc3cnccc23)cc1 [Example 93, 7-(3-fluorophenyl)-isoquinoline-5-sulfonic acid [2-(3-(4-nitrophenyl)-propylamino)-ethyl]-amide]",≤ 2000 nM
2,"CN(C)CCOc1cc(Cl)ccc1CCCNCCNS(=O)(=O)c1cc(-c2ccccc2)cc2cnccc12 [Example 59, 7-Phenyl-isoquinoline-5-sulfonic acid {2-[3-(4-chloro-2-(2-dimethylamino-ethoxy)-phenyl)-propylamino]-ethyl}-amide, dihydrochloride salt]",≤ 2000 nM
3,"O=[N+]([O-])c1ccc([C@H](O)CCNCCNS(=O)(=O)c2cc(-c3ccccc3)cc3cnccc23)cc1 [Example 81, (R)-7-Phenyl-isoquinoline-5-sulfonic acid [2-(3-hydroxy-3-(4-nitrophenyl)-propylamino)-ethyl]-amide, mesylate salt]",≤ 2000 nM
4,"CSc1ccc(CCCNCCNS(=O)(=O)c2cc(-c3ccccc3)cc3cnccc23)cc1 [Example 35, 7-Phenyl-isoquinoline-5-sulfonic acid {2-[3-(4-methylthiophenyl)-propylamino]-ethyl}-amide, dihydrochloride salt]",≤ 2000 nM
5,"O=[N+]([O-])c1ccc([C@@H](O)CCNCCNS(=O)(=O)c2cc(-c3ccccc3)cc3cnccc23)cc1 [Example 82, (S)-7-Phenyl-isoquinoline-5-sulfonic acid [2-(3-hydroxy-3-(4-nitrophenyl)-propylamino)-ethyl]-amide, mesylate salt]",≤ 2000 nM
6,"O=S(=O)(NCCNCCCc1cccc(O)c1)c1cc(-c2ccc(O)cc2)cc2cnccc12 [Example 109, 7-(4-Hydroxy-phenyl)-isoquinoline-5-sulfonic acid {2-[3-(3-hydroxy-phenyl)-propylamino]-ethyl}-amide]",≤ 2000 nM
7,"N#Cc1ccc(CCCNCCNS(=O)(=O)c2cc(-c3ccccc3)cc3cnccc23)cc1 [Example 33, 7-Phenyl-isoquinoline-5-sulfonic acid {2-[3-(4-cyanophenyl)-propylamino]-ethyl}-amide, dihydrochloride salt]",≤ 2000 nM
8,"O=[N+]([O-])c1ccc(CCCNCCNS(=O)(=O)c2cc(-c3cccc(O)c3)cc3cnccc23)cc1 [Example 99, 7-(3-hydroxy-phenyl)-isoquinoline-5-sulfonic acid {2-[3-(4-nitro-phenyl)-propylamino]-ethyl}-amide, dihydrochloride salt]",≤ 2000 nM
9,"O=[N+]([O-])c1ccc(C(O)C(O)CNCCNS(=O)(=O)c2cc(-c3ccccc3)cc3cnccc23)cc1 (single isomer, unassigned; isomer 1) [Example 88, 7-Phenyl-isoquinoline-5-sulfonic acid [2-(2,3-dihydroxy-3-(4-nitrophenyl)-propylamino)-ethyl]-amide isomer 1, dihydrochloride salt]",≤ 2000 nM
10,"O=S(=O)(NCCNCCCc1cccc(F)c1F)c1cc(-c2ccccc2)cc2cnccc12 [Example 68, 7-Phenyl-isoquinoline-5-sulfonic acid {2-[3-(2,3-difluorophenyl)-propylamino]-ethyl}-amide, dihydrochloride salt]",≤ 2000 nM
11,"O=S(=O)(NCCNCCCc1ccc(Cl)cc1N1CCNCC1)c1cc(-c2ccccc2)cc2cnccc12 [Example 44, 7-Phenyl-isoquinoline-5-sulfonic acid {2-[3-(4-chloro-2-piperazin-1-yl-phenyl)-propylamino]-ethyl}-amide, tetrahydrochloride salt]",≤ 2000 nM
12,"CC(=O)Nc1ccc(CCCNCCNS(=O)(=O)c2cc(-c3ccccc3)cc3cnccc23)cc1 [Example 28, 7-Phenyl-isoquinoline-5-sulfonic acid {2-[3-(4-acetamidophenyl)-propylamino]-ethyl}-amide, dihydrochloride salt]",≤ 2000 nM
13,"N#Cc1ccc(CC(O)CNCCNS(=O)(=O)c2cc(-c3ccccc3)cc3cnccc23)cc1 (centres unmarked) [Example 111, 7-Phenyl-isoquinoline-5-sulfonic acid {2-[3-(4-cyano-phenyl)-2-hydroxy-propylamino]-ethyl}-amide, dihydrochloride salt, dihydrochloride salt, dihydrochloride salt, dihydrochloride …]",≤ 2000 nM
14,"O=S(=O)(NCCNCC(O)C(O)c1ccc(S(=O)(=O)C(F)(F)F)cc1)c1cc(-c2ccccc2)cc2cnccc12 (centres unmarked) [Example 113, 7-Phenyl-isoquinoline-5-sulfonic acid {2-[2,3-dihydroxy-3-(4-trifuoromethanesulfonyl-phenyl)-propylamino]-ethyl}-amide, dihydrochloride salt]",≤ 2000 nM
15,"O=[N+]([O-])c1ccc(CCCNCCNS(=O)(=O)c2cc(-c3ccccc3)cc3cnccc23)cc1 [Example 3, 7-Phenyl-isoquinoline-5-sulfonic acid {2-[3-(4-nitrophenyl)-propylamino]-ethyl}-amide, dihydrochloride salt]",≤ 2000 nM
16,"N#Cc1cccc(CCCNCCNS(=O)(=O)c2cc(-c3ccccc3)cc3cnccc23)c1 [Example 32, 7-Phenyl-isoquinoline-5-sulfonic acid {2-[3-(3-cyanophenyl)-propylamino]-ethyl}-amide, dihydrochloride salt]",≤ 2000 nM
17,"COc1cccc(CCCNCCNS(=O)(=O)c2cc(-c3ccccc3)cc3cnccc23)c1 [Example 31, 7-Phenyl-isoquinoline-5-sulfonic acid {2-[3-(3-methoxyphenyl)-propylamino]-ethyl}-amide, dihydrochloride salt]",≤ 2000 nM
18,"O=S(=O)(NCCNCCCc1ccc(Cl)cc1OC1CCNC1)c1cc(-c2ccccc2)cc2cnccc12 (centres unmarked) [Example 56, 7-Phenyl-isoquinoline-5-sulfonic acid {2-[3-(4-chloro-2-(pyrrolidin-3-yl)oxy-phenyl)-propylamino]-ethyl}-amide, trihydrochloride salt]",≤ 2000 nM
19,"O=S(=O)(NCCNCCCc1ccc(OC(F)(F)C(F)F)cc1)c1cc(-c2ccccc2)cc2cnccc12 [Example 27, 7-Phenyl-isoquinoline-5-sulfonic acid {2-[3-(4-(1,1,2,2-tetrafluoroethoxy)phenyl)-propylamino]-ethyl}-amide, dihydrochloride salt]",≤ 2000 nM
20,"O=[N+]([O-])c1ccc(C(O)C(O)CNCCNS(=O)(=O)c2cc(-c3ccccc3)cc3cnccc23)cc1 (centres unmarked) [Example 87, 7-Phenyl-isoquinoline-5-sulfonic acid [2-(2,3-dihydroxy-3-(4-nitrophenyl)-propylamino)-ethyl]-amide, dihydrochloride salt]",≤ 2000 nM
21,"O=S(=O)(NCCNCCCc1ccc(O)cc1)c1cc(-c2ccccc2)cc2cnccc12 [Example 19, 7-Phenyl-isoquinoline-5-sulfonic acid {2-[3-(4-hydroxyphenyl)-propylamino]-ethyl}-amide, dihydrochloride salt]",≤ 2000 nM
22,"O=S(=O)(NCCNCCCc1ccc(OC(F)F)cc1)c1cc(-c2ccccc2)cc2cnccc12 [Example 30, 7-Phenyl-isoquinoline-5-sulfonic acid {2-[3-(4-difluoromethoxy-phenyl)-propylamino]-ethyl}-amide, dihydrochloride salt]",≤ 2000 nM
23,"O=[N+]([O-])c1ccc(CCCNCCNS(=O)(=O)c2cc(-c3ccccc3)cc3cnccc23)c(Cl)c1 [Example 38, 7-Phenyl-isoquinoline-5-sulfonic acid {2-[3-(2-chloro-4-nitrophenyl)-propylamino]-ethyl}-amide, dihydrochloride salt]",≤ 2000 nM
24,"O=S(=O)(NCCNCCCc1cccc(O)c1)c1cc(-c2ccccc2)cc2cnccc12 [Example 18, 7-Phenyl-isoquinoline-5-sulfonic acid {2-[3-(3-hydroxyphenyl)-propylamino]-ethyl}-amide, dihydrochloride salt]",≤ 2000 nM
25,"O=S(=O)(NCCNCCCc1ccc(F)cc1-c1ccccc1)c1cc(-c2ccccc2)cc2cnccc12 [Example 36, 7-Phenyl-isoquinoline-5-sulfonic acid {2-[3-(5-fluoro-biphenyl-2-yl)-propylamino]-ethyl}-amide, dihydrochloride salt]",≤ 2000 nM
26,"O=[N+]([O-])c1ccc(C(O)CCNCCNS(=O)(=O)c2cc(-c3ccccc3)cc3cnccc23)cc1 (centres unmarked) [Example 73, 7-Phenyl-isoquinoline-5-sulfonic acid [2-(3-hydroxy-3-(4-nitrophenyl)-propylamino)-ethyl]-amide, dihydrochloride salt]",≤ 2000 nM
